The values below come from patent publication US9173920B2, “Methods of treating muscular wasting diseases using NF-KB activation inhibitors” (TheraLogics, Inc., priority 2006, dated 2015).

The assay has as its system mdx−/− mice. The assay is described as follows: Diaphragm muscle force measurement after treating mdx−/− mice with peptides comprising NEMO binding domains (Example 3). In kind it is in vivo. The following applies: for treated mice in which force output was higher: diaphragm muscle. How it is done: In this Example, three week old male mdx−/− mice were treated with various peptides comprising NEMO binding domains. The diaphragm muscles of the mice were then evaluated to determine the ability of the peptides to treat muscle wasting in the mdx mice.
Three week old mdx−/− mice were treated by intraperitoneal injections with 200 μg of either a wild type peptide (SEQ ID NO 19) comprising a NEMO binding domain or a mutant peptide (SEQ ID NO 20). The mice were injected every three days for a total trial period of 27 days. After 27 days, the mice were sacrificed and the diaphragm muscles were removed.
The diaphragm muscles were placed in a chamber filled with Ringer solution and perfused continuously with an O2/CO2 mixture. The muscles were then attached using a steel hook to a force transducer and subsequently stimulated at varying frequencies. At each frequency, forces were allowed to reach a steady state before the data was recorded.

The mark [1] stands for this setting: three week old male mdx−/− mice, 200 μg intraperitoneal every three days for 27 days, FIG. 5.

For “mutant peptide: mutant peptide (SEQ ID NO 20) used as comparator to the wild type NEMO binding domain peptide (TALDASALQTE; NBD mutants) [reference compound]”, the “treated mice in which force output was higher” value under setting [1] is “one of the three”.

Take “wild type peptide: wild type peptide (SEQ ID NO 19) comprising a NEMO binding domain (TALDWSWLQTE; NBD mutants)”: the “effect on dystrophic phenotype in affected mice” value (injection, summary statement on Example 3) is recorded as “inhibit the dystrophic phenotype”. Besides, the “treated mice in which force output was higher” value under setting [1] was “three of the four”. For the same substance, the “tetanic contractions (force) of diaphragm muscles at various stimulation frequencies” value (three week old male mdx−/− mice, 200 μg intraperitoneal every three days for 27 days, excised diaphragm in Ringer solution, compared to mutant peptide, FIG. 5) was “generally higher tentanic contractions”.
